According to patent US10413520B2, “Oral pharmacological composition including 5-{4-(amino sulfonyl)phenyl}-2,2-dimethyl-4-(3-fluorophenyl)-3(2H)-furanone having crystalline structure with excellent stability” (CRYSTALGENOMICS, INC., priority 2014, dated 2019):
Read-outs that look alike come from different tables or passages of the source. Each block holds one molecule with its values, some of them ahead of it.

Assays:
[1] = Particle size analysis by laser diffraction; format: physicochemical; details: dry module, 2 bar
Protocol: The particle sizes of the crystalline form of Comparative Examples 1 and 2 and Example 39 were analyzed using a laser diffraction-based particle size analyzer (Mastersizer 2000®, Malvern). After each sample was fed into a dry module (Scirocco 2000®, Malvern) at a pressure of 2 bar, the 50% volume particle diameter (d(0.5)) and 90% volume particle diameter (d(0.9)) of the particles were measured.

[2] = Solubility test in solvents, up to 200 vol (Table 1); format: physicochemical; details: organic solvent or mixture, thermodynamic from solid, about 5 mg compound, solvent named in the row (c1)
Text: Then, the solvents were evaporated at room temperature for drying and XRPD patterns of the obtained dried materials were confirmed.

[3] = Light stability of crystalline form A in capsules; format: physicochemical; details: for Amounts of related substances (each) / Amounts of related substances (total) / Appearance / Content / Peak retention time confirmation: PTP, light stress (white and UV florescent lamp)
Protocol: (§1) The crystalline form A was filled in a hard capsule (2 mg per capsule) and stored under the light stress conditions shown in Table 11. Thereafter, the appearance of the crystalline form A, the retention time of the major peak, the amounts (%) of related substances, and the compound content were analyzed.

[4] = Dissolution rates of crystalline form with different particle sizes; format: physicochemical; details: 2 mg per hard capsule, 900 ml pH 1.2 and pH 6.8 solutions, 100 rpm, 37±0.5° C., 3 hr
Protocol: In this example, the dissolution rates of the crystalline form with different particle sizes were examined. The particles of Comparative Examples 1 and 2 and Example 39 were filled in different hard capsules (2 mg per capsule) and were then eluted in 900 ml of a pH 1.2 solution and 900 ml of a pH 6.8 solution at a revolution number of 100 rpm and a temperature of 37±0.5° C. for 3 hr. The eluted particles were analyzed under the same HPLC conditions as described in Test Example 1.

[5] = Temperature stability of crystalline form A in capsules; format: physicochemical; details: PTP, 60 ± 5% RH
Protocol: The retention time of the major peak, the amounts of related substances, and the compound content were analyzed by HPLC under the following conditions.
<HPLC Conditions for Analysis of Related Substances>
Column: Hypurity C18, 250×4.6 mm, […] or its equivalent column
Detector: UV absorption spectrometer (measured at 241 nm)
(§2) Column temperature: 30° C.
Mobile phase: A—acetonitrile, B—0.1% v/v trifluoroacetic acid (TFA) in water
<HPLC Conditions for Analysis of the Compound Content>
(§3) Detector: UV absorption spectrometer (measured at 325 nm)
(§4) Mobile phase: A—acetonitrile, B—water, A:B=60:40, v/v %
Diluent: water:acetonitrile=50:50, v/v %

[6] = Humidity stability of crystalline form A in capsules; format: physicochemical; details: PTP, 25 ± 2° C., 90 ± 5% RH
Protocol: as §1, with “severe humidity” for “light stress”, “10.” for “11.”

[7] = Room temperature storage of anhydrous form; format: physicochemical; details: stored at room temperature for a long period
Protocol: Then, about 18 g of the compound was dissolved in 200 mL of acetone. The completely dissolved solution was vacuum dried at 40° C. using a rotary evaporator (Buchi Rota Vapour R200). The compound thus obtained was a sponge-like solid. When the compound was stored at room temperature for a long period, the structure of the crystalline form A was gradually formed, and related substances were created due to hygroscopic property.

[8] = Pharmacokinetic properties of crystalline forms after oral administration; format: in vivo; details: single oral dose, male SD rats; for AUC / Cmax / Tmax: about 5 mg in 10 mL 0.5% methylcellulose, 10 mL/Kg
Protocol: The pharmacokinetic properties of the different crystalline forms of the compound of Formula 1 were analyzed in vivo. About 5 mg of each of the crystalline form A of Preparative Example 5 and the crystalline form G of Preparative Example 6 was suspended in 10 mL of a 0.5% methylcellulose solution to produce a formulation for oral use. Then, 6 week old male SD rats (Orient Bio. Inc., Korea) were divided into two groups. About 3 mL (10 mL/Kg) of the oral formulation was once administered orally to each rat and blood samples were drawn from the rat at predetermined intervals of 0.167, 0.5, 1.0, 2.0, 4.0, 6.0, 8.0, and 24.0 hr. The blood samples were used to analyze the pharmacokinetic parameters of the crystalline form.
The pharmacokinetic parameters of the crystalline forms were analyzed using Waters Quattro premier XE 2795 Alliance HT (Waters) under the following conditions: flow rate=0.25 ml/min, column temperature=40° C., injection volume=7 μL, and mobile phase=A: 1 mM ammonium acetate & 0.1% acetic acid (35%), B: ACN (65%). Linearity was established with 8 different standard concentrations.
The oral formulations including the compound of Preparative Example 5 and the compound of Preparative Example 6, respectively, were administered to the different rats.

[9] = Related substance creation under stress conditions (HPLC); format: physicochemical; details: stress conditions 60±2° C. and 85±5% (RH), sealed glass vial; for Total related substance: after 4 week storage
Protocol: Each raw material was sealed in a glass vial and sampled at different elapsed time. The samples were evaluated by HPLC analysis. […] Based on the above results, the crystalline forms A and G were selected and used for the study for manufacturing an oral pharmacological composition.

[10] = Dissolution rates of crystalline forms in hard capsules; format: physicochemical; details: 900 ml pH 1.2 solution, 50 and 100 rpm, 37±0.5° C., 2 hr
Protocol: In this example, the dissolution rates of the crystalline forms of the compound of Formula 1 were examined. Specifically, each of the crystalline form A of Preparative Example 5 and the crystalline form G of Preparative Example 6 was filled in hard capsules and was then eluted in 900 ml of a pH 1.2 solution at different revolution numbers of 50 and 100 rpm and a temperature of 37±0.5° C. for 2 hr. The eluted particles were analyzed under the following HPLC conditions:
Column: Hypurity C18, 250×4.6 mm, 5 μm or its equivalent column
as §3, §2, §4

[11] = Storage stability of crystalline forms (appearance, XRD, related substances); format: physicochemical; details: 25° C./97% RH and 40° C./75% RH, 7 days; for State of crystalline form (XRD): hard capsules; for Appearance and crystalline structures / Creation of related substances: uncapped glass vial
Protocol: Additionally, the crystalline forms of the compound of Formula 1 were evaluated for storage stability. The crystalline form A of Preparative […] conditions (25° C./97% RH) and accelerated storage conditions (40° C./75% RH) for 7 days. X-ray diffraction analysis was performed in accordance with the same method as described in Preparative Examples 5 and 6.

[12] = Solubility test in 28 solvents at r.t. and 50° C. (Table 2)
Protocol: When dissolution was incomplete during the experiment, the solution was maturated by repeatedly heating to 50° C. and then cooling to room temperature 8 times for 24 hr in an incubation chamber. After maturation, the solvent was dried at room temperature.
During the experiment, the completely dissolved solution was stored under a cold condition (4° C.) for 24 hr to allow crystal formation, recovered and dried at room temperature. Then XRPD analysis was performed.

Structure (SMILES): CC1(C)OC(c2ccc(S(N)(=O)=O)cc2)=C(c2cccc(F)c2)C1=O [Comparative Example 1]
Particle size d(0.1) [1]: 40.55 μm
Particle size d(0.5), 50% volume particle diameter [1]: 136.49 μm
Particle size d(0.9), 90% volume particle diameter [1]: 527.04 μm

Structure (SMILES): CC1(C)OC(c2ccc(S(N)(=O)=O)cc2)=C(c2cccc(F)c2)C1=O [Comparative Example 2]
Particle size d(0.1) [1]: 5.15 μm
Particle size d(0.5), 50% volume particle diameter [1]: 32.17 μm
Particle size d(0.9), 90% volume particle diameter [1]: 83.54 μm

Structure (SMILES): CC1(C)OC(c2ccc(S(N)(=O)=O)cc2)=C(c2cccc(F)c2)C1=O [Example 4]
solubility ([2]; read-out: Solubility at 100 vol (500 uL)): > 10000 µg/mL

Structure (SMILES): CC1(C)OC(c2ccc(S(N)(=O)=O)cc2)=C(c2cccc(F)c2)C1=O [Example 5]
solubility ([2]; read-out: Solubility at 200 vol (1000 uL)): < 5000 µg/mL

The next lines start with results.

Amounts of related substances (each) ([3]; 1 week): 1.7%
Amounts of related substances (total) ([3]; 1 week): 3.0%
Appearance ([3]; 1 week): Unchanged
Content ([3]; 1 week): 103.4%
Peak retention time confirmation ([3]; 1 week): The same
Amounts of related substances (each) ([3]; 2 weeks): 2.1%
Amounts of related substances (total) ([3]; 2 weeks): 3.7%
Appearance ([3]; 2 weeks): Unchanged
Content ([3]; 2 weeks): 103.1%
Peak retention time confirmation ([3]; 2 weeks): The same
Amounts of related substances (each) ([3]; 4 weeks): 2.3%
Amounts of related substances (total) ([3]; 4 weeks): 4.1%
Appearance ([3]; 4 weeks): Unchanged
Content ([3]; 4 weeks): 99.1%
Peak retention time confirmation ([3]; 4 weeks): The same
Amounts of related substances (each) ([5]; 60 ± 2° C., 24 hr): 0.0%,
Amounts of related substances (total) ([5]; 60 ± 2° C., 24 hr): 0.0%
Appearance ([5]; 60 ± 2° C., 24 hr): Unchanged
Content ([5]; 60 ± 2° C., 24 hr): 103.0%
Peak retention time confirmation ([5]; 60 ± 2° C., 24 hr): The same
Amounts of related substances (each) ([5]; 80 ± 2° C., 24 hr): 0.0%,
Amounts of related substances (total) ([5]; 80 ± 2° C., 24 hr): 0.0%
Appearance ([5]; 80 ± 2° C., 24 hr): Unchanged
Content ([5]; 80 ± 2° C., 24 hr): 101.5%
Peak retention time confirmation ([5]; 80 ± 2° C., 24 hr): The same
Amounts of related substances (each) ([5]; 90 ± 2° C., 24 hr): 0.0%,
Amounts of related substances (total) ([5]; 90 ± 2° C., 24 hr): 0.0%
Appearance ([5]; 90 ± 2° C., 24 hr): Unchanged
Content ([5]; 90 ± 2° C., 24 hr): 101.8%
Peak retention time confirmation ([5]; 90 ± 2° C., 24 hr): The same
Amounts of related substances (each) ([5]; 90 ± 2° C., 72 hr): 0.1%,
Amounts of related substances (total) ([5]; 90 ± 2° C., 72 hr): 0.1%
Appearance ([5]; 90 ± 2° C., 72 hr): Unchanged
Content ([5]; 90 ± 2° C., 72 hr): 101.1%
Peak retention time confirmation ([5]; 90 ± 2° C., 72 hr): The same
Particle size d(0.1) [1]: 1.75 μm
Particle size d(0.5), 50% volume particle diameter [1]: 5.98 μm
Particle size d(0.9), 90% volume particle diameter [1]: 15.23 μm
Amounts of related substances (each) ([6]; 1 week): 0.1%
Amounts of related substances (total) ([6]; 1 week): 0.1%,
Appearance ([6]; 1 week): Unchanged
Content ([6]; 1 week): 103.1%
Peak retention time confirmation ([6]; 1 week): The same
Amounts of related substances (each) ([6]; 2 weeks): 0.1%, 0.1%
Amounts of related substances (total) ([6]; 2 weeks): 0.1%, 0.1%
Appearance ([6]; 2 weeks): Unchanged
Content ([6]; 2 weeks): 103.1%
Peak retention time confirmation ([6]; 2 weeks): The same
Amounts of related substances (each) ([6]; 4 weeks): 0.1%,
Amounts of related substances (total) ([6]; 4 weeks): 0.1%
Appearance ([6]; 4 weeks): Unchanged
Content ([6]; 4 weeks): 101.2%
Peak retention time confirmation ([6]; 4 weeks): The same
Structure (SMILES): CC1(C)OC(c2ccc(S(N)(=O)=O)cc2)=C(c2cccc(F)c2)C1=O [Example 39]
Dissolution rate [4]: higher dissolution rates than the particles of Comparative Examples 1 and 2

Physicochemical stability [7]: physicochemically unstable
Structure (SMILES): CC1(C)OC(c2ccc(S(N)(=O)=O)cc2)=C(c2cccc(F)c2)C1=O [Preparation Example 2]

Time until related substances exceeded the criteria ([3]; light stress storage conditions): ≤ 7 days
AUC ([8]; male, SD, rat, blood, po, 5 mg, read-out: AUC): 2320 ng·h/mL
Cmax ([8]; male, SD, rat, blood, po, 5 mg, read-out: Cmax): 751 ng/mL
Tmax ([8]; male, SD, rat, blood, po, 5 mg, read-out: Tmax): 30 min
Total related substance [9]: about 0.1%
State of crystalline form (XRD) [11]: maintained stable
Appearance and crystalline structures [11]: remained unchanged
Creation of related substances [11]: rarely observed
Structure (SMILES): CC1(C)OC(c2ccc(S(N)(=O)=O)cc2)=C(c2cccc(F)c2)C1=O [Preparative Example 5]
In vivo dissolution rates (blood levels over time) [8]: higher in vivo dissolution rates than the crystalline form G of Preparative Example 6
Dissolution rate [10]: higher dissolution rates than the crystalline form G

AUC [8]: 2416.835 ng·h/mL
Cmax [8]: 513.614 ng/mL
Tmax [8]: 60 min
Total related substance [9]: about 0.1%
State of crystalline form (XRD) [11]: maintained stable
Appearance and crystalline structures [11]: remained unchanged
Creation of related substances [11]: rarely observed
Structure (SMILES): CC1(C)OC(c2ccc(S(N)(=O)=O)cc2)=C(c2cccc(F)c2)C1=O [Preparative Example 6]

Dissolution in solvent volume up to 100 times, heated up to 50° C. ([12]; IPA, Toluene, TBME, Diethyl ether, Heptane, water): not dissolved
Dissolution in solvent volume 10 times the raw material ([12]; acetone, 2-butanone, THF, DMSO, Methylpyrrolidine, Dioxane, acetonitrile aqueous solution, NMP, 1-methoxy-IPA): dissolved
Dissolution in solvent volume 20 times to 40 times the raw material ([12]; ethyl acetate, acetonitrile, MIBK, DCM, Nitromethane): dissolved
Structure (SMILES): CC1(C)OC(c2ccc(S(N)(=O)=O)cc2)=C(c2cccc(F)c2)C1=O [compound of Formula 1]

Level of total related substance over time [9]: rapidly increased
Structure (SMILES): CC1(C)OC(c2ccc(S(N)(=O)=O)cc2)=C(c2cccc(F)c2)C1=O [crystalline form B]
